Reference: publication PMC8999917, “Structure–Activity Relationship of Synthetic Ginkgolic Acid Analogs for Treating Type 2 Diabetes by PTPN9 Inhibition” (International Journal of Molecular Sciences, 2022)

Legend:
[1] = biological target: T1, GPR120 (Homo sapiens, UniProt Q5NUL3); experiment: GPR120 SRE-Luc reporter gene assay in CHO cells; assay type: cell-based; settings: 50 μM
T1 construct: host or cells: CHO cells
T1 sequence (Q5NUL3 1-361): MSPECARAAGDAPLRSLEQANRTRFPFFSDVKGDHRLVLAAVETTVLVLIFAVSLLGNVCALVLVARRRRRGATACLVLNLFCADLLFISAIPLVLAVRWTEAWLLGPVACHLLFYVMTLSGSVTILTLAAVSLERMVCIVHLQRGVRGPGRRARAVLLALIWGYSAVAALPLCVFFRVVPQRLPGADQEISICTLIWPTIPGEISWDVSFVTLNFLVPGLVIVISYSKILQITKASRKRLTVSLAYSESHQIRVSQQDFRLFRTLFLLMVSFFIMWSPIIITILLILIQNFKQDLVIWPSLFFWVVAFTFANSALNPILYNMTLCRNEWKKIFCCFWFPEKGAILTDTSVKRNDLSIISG
From the text: (§1) Glucose uptake is regulated by three major mechanisms. First, through the activation of the Akt pathway, which promotes GLUT4 translocation via the activation of the signaling cascade involving the insulin receptor substrate (IRS) family and PI3 kinase through […] or G-protein-coupled receptors (GPCRs); second, through the upregulation of AMPK phosphorylation, which increases glucose uptake by inducing GLUT4 translocation to the plasma membrane; third, through the promotion of GLUT4 expression by PPARγ ligands. […] However, these compounds may induce GLUT4 expression and improve insulin sensitivity in the treated cells through their interactions with GPCR and/or PPARγ. Among GPCRs highly expressed in 3T3-L1 adipocytes and C2C12 muscle cells, GPR120 is the receptor that is most closely associated with glucose uptake. […] This was performed following a previously described method. In brief, CHO cells were plated to 96-well white plates (REF3610, Corning Life Sciences, NY, USA) in DMEM (HyClone^TM, Cytivalifescience, Seoul, Korea) supplemented with 10% FBS and 1% penicillin at a density of 1.5 × 10^4 cells/well. […] After incubation for another 24 h, luciferase activity was measured using the dual-luciferase assay system (Promega Korea, Seoul, Korea) according to the manufacturer’s instructions. […]

[2] = biological target: T2, PPARγ (Homo sapiens, UniProt P37231); experiment: PPARγ PPRE-Luc reporter gene assay in CHO cells; assay type: cell-based; settings: 50 μM
T2 construct: expressed in transfected cells; host or cells: CHO cells
T2 sequence (P37231 1-505): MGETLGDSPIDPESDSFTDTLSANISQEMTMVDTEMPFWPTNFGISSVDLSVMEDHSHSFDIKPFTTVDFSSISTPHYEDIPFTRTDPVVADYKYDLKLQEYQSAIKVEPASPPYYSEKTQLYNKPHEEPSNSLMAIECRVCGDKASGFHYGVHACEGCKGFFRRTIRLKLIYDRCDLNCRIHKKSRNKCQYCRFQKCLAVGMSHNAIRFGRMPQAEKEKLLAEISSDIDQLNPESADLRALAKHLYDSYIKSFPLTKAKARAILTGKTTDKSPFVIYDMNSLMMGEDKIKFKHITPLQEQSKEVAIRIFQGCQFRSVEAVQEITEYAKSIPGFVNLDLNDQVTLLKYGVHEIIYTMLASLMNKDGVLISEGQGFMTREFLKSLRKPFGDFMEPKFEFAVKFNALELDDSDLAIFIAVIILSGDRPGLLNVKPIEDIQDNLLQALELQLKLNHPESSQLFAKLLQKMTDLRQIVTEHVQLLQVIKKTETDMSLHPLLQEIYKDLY
From the text: as §1

Compound | GPR120 transcriptional activity (SRE-Luc) [1] | PPARγ transcriptional activity (PPRE-Luc) [2]
CCCCCCCCCCCCCOc1cccc(O)c1C(=O)O [Compound 1e] | No significant change | No significant change
CCCCCCCCCCCCCCCOc1cccc(O)c1C(=O)O [Compound 1f] | No significant change | No significant change
